Measurements reported in US20140093513A1, “METHODS OF LOWERING PROPROTEIN CONVERSATE SUBTILISIN/KEXIN TYPE 9 (PCSK9)” (Catabasis Pharmaceuticals, Inc., priority 2012, published 2014).
pIC50: −log10 of the molar value.

Test system: PCSK9
Experiment: PCSK9 secretion assay in HepG2 cells (PCSK9 ELISA)
Assay type: cell-based
Settings: HepG2 cells, 16 hours incubation, at least 6 concentrations
Description: HepG2 cells (from ATCC, Catalog no. HB-8065) were maintained in DMEM (Invitrogen) supplemented with 10% fetal bovine serum (Invitrogen). The day prior to the PCSK9 assay, cells are seeded in 96-well collagen coated plates at 25,000 cells/well.
The compounds of the invention were stored at −20° C. until used. The test article compound was dissolved in 100% ethanol to a 50 mM stock solution. This was then diluted in FBS to a final concentration of 1 mM. This solution was placed in a sonicating water bath for 30 minutes. Subsequent dilutions were then made in FBS supplemented with an equivalent volume of ethanol and mixed by vortexing.
HepG2 cells were seeded onto a collagen coated 96-well plate (Becton Dickinson, Catalog no. 35-4407) the day prior to the assay, as described above. The next day, the cell medium was removed, washed once with 100 μL serum free DMEM to remove any residual PCSK9, and replaced with 90 μL of serum free DMEM. Ten microliters of each compound concentration prepared in FBS was then added. Each concentration of compound was tested in triplicate. The compound was incubated with the cells overnight for 16 hours. Following this incubation, 10 μL of AlamarBlue was added to each well and cells incubated for another 2 hours. The plates were then removed and AlamarBlue fluorescence was measured (excitation, 550 nm and […]) to assess cell viability. Cell culture supernatant was then diluted […] 1×RDSP Calibrator Diluent and PCSK9 ELISA was then performed with 50 μL of this diluted sample, as per the manufacturer's instructions. The ELISA was measured on a Victor X5 multilabel plate reader (PerkinElmer) at an absorbance of 450 nm with background correction measured at 550 nm (The PCSK9 Elisa kits can be purchased from R&D System, Catalog no. DPC900).
Alternatively, an IC50 could also be obtained when this type of assay was carried out using at least 6 different concentrations of the test compounds. Table 1 lists the IC50 values for the compounds tested in this assay.

Row | SMILES | pIC50
1 | CC/C=C\C/C=C\C/C=C\C/C=C\C/C=C\CCCC(=O)NCCNC(=O)c1cccnc1O [VI-3, 2-hydroxy-N-(2-((5Z,8Z,11Z,14Z,17Z)-icosa-5,8,11,14,17-pentaenamido)ethyl)nicotinamide] | < 4.30
2 | CC/C=C\C/C=C\C/C=C\C/C=C\C/C=C\CCCC(=O)NCCNC(=O)c1cccnc1-c1ccccc1 [VI-4, N-(2-((5Z,8Z,11Z,14Z,17Z)-icosa-5,8,11,14,17-pentaenamido)ethyl)-2-phenylnicotinamide] | < 4.30
3 | CC/C=C\C/C=C\C/C=C\C/C=C\C/C=C\CCCC(=O)NCCNC(=O)c1cncc(O)c1 [VI-5, 5-hydroxy-N-(2-((5Z,8Z,11Z,14Z,17Z)-icosa-5,8,11,14,17-pentaenamido)ethyl)nicotinamide] | 4.30 to 4.60
4 | CC/C=C\C/C=C\C/C=C\C/C=C\C/C=C\CCCC(=O)NCCNC(=O)c1cccnc1C [VI-6, N-(2-((5Z,8Z,11Z,14Z,17Z)-icosa-5,8,11,14,17-pentaenamido)ethyl)-2-methylnicotinamide] | 4.30 to 4.60
5 | CC/C=C\C/C=C\C/C=C\C/C=C\C/C=C\CCCC(=O)NCCNC(=O)c1cccnc1F [VI-7, 2-fluoro-N-(2-((5Z,8Z,11Z,14Z,17Z)-icosa-5,8,11,14,17-pentaenamido)ethyl)nicotinamide] | > 4.60
6 | CC/C=C\C/C=C\C/C=C\C/C=C\C/C=C\CCCC(=O)N1CC[C@H](N(C)C(=O)C2=CC(=O)C(C)(c3ccccc3)O2)C1 (stereo partly drawn) [VII-9, N—((S)-1-((5Z,8Z,11Z,14Z,17Z)-icosa-5,8,11,14,17-pentaenoyl)pyrrolidin-3-yl)-N,5-dimethyl-4-oxo-5-phenyl-4,5-dihydrofuran-2-carboxamide] | 4.30 to 4.60
7 | CC/C=C\C/C=C\C/C=C\C/C=C\C/C=C\CCCC(=O)N1CC[C@@H](NC(=O)c2cnc(C)c[n+]2[O-])C1 [VII-11, 2-(((R)-1-((5Z,8Z,11Z,14Z,17Z)-icosa-5,8,11,14,17-pentaenoyl)pyrrolidin-3-yl)carbamoyl)-5-methylpyrazine 1-oxide] | < 4.30
8 | CC/C=C\C/C=C\C/C=C\C/C=C\C/C=C\CCCC(=O)N1CC[C@H](NC(=O)c2cnc(C)c[n+]2[O-])C1 [VII-12, 2-(((S)-1-((5Z,8Z,11Z,14Z,17Z)-icosa-5,8,11,14,17-pentaenoyl)pyrrolidin-3-yl)carbamoyl)-5-methylpyrazine 1-oxide] | < 4.30
9 | CC/C=C\C/C=C\C/C=C\C/C=C\C/C=C\CCCC(=O)N1CCC[C@H]1CNC(=O)c1cnc(C)c[n+]1[O-] [VII-14, 2-((((S)-1-((5Z,8Z,11Z,14Z,17Z)-icosa-5,8,11,14,17-pentaenoyl)pyrrolidin-2-yl)methyl)carbamoyl)-5-methylpyrazine 1-oxide] | 4.30 to 4.60
10 | CC/C=C\C/C=C\C/C=C\C/C=C\C/C=C\CCCC(=O)N1CCC(CN(C)C(=O)c2cnc(C)c[n+]2[O-])CC1 [VII-16, 2-(((1-((5Z,8Z,11Z,14Z,17Z)-icosa-5,8,11,14,17-pentaenoyl)piperidin-4-yl)methyl)(methyl)carbamoyl)-5-methylpyrazine 1-oxide] | 4.30 to 4.60
11 | CC/C=C\C/C=C\C/C=C\C/C=C\C/C=C\CCCC(=O)N1CC[C@H](N(C)C(=O)c2cnc(C)c[n+]2[O-])C1 [VII-17, 2-(((S)-1-((5Z,8Z,11Z,14Z,17Z)-icosa-5,8,11,14,17-pentaenoyl)pyrrolidin-3-yl)(methyl)carbamoyl)-5-methylpyrazine 1-oxide] | > 4.60
12 | CC/C=C\C/C=C\C/C=C\C/C=C\C/C=C\CCCC(=O)N1CCC(NC(=O)C(C)(C)Oc2ccc(C(=O)c3ccc(Cl)cc3)cc2)CC1 [VII-19, 2-(4-(4-chlorobenzoyl)phenoxy)-N-(1-((5Z,8Z,11Z,14Z,17Z)-icosa-5,8,11,14,17-pentaenoyl)piperidin-4-yl)-2-methylpropanamide] | > 4.60
13 | CC/C=C\C/C=C\C/C=C\C/C=C\C/C=C\CCCC(=O)N1CCC(CNC(=O)C(C)(C)Oc2ccc(C(=O)c3ccc(Cl)cc3)cc2)CC1 [VII-20, 2-(4-(4-chlorobenzoyl)phenoxy)-N-((1-((5Z,8Z,11Z,14Z,17Z)-icosa-5,8,11,14,17-pentaenoyl)piperidin-4-yl)methyl)-2-methylpropanamide] | > 4.60
14 | CC/C=C\C/C=C\C/C=C\C/C=C\C/C=C\CCCC(=O)N1CC[C@@H](NC(=O)C(C)(C)Oc2ccc(C(=O)c3ccc(Cl)cc3)cc2)C1 [VII-21, 2-(4-(4-chlorobenzoyl)phenoxy)-N—((R)-1-((5Z,8Z,11Z,14Z,17Z)-icosa-5,8,11,14,17-pentaenoyl)pyrrolidin-3-yl)-2-methylpropanamide] | > 4.60
15 | CC/C=C\C/C=C\C/C=C\C/C=C\C/C=C\CCCC(=O)N1CC[C@H](NC(=O)C(C)(C)Oc2ccc(C(=O)c3ccc(Cl)cc3)cc2)C1 [VII-22, 2-(4-(4-chlorobenzoyl)phenoxy)-N—((S)-1-((5Z,8Z,11Z,14Z,17Z)-icosa-5,8,11,14,17-pentaenoyl)pyrrolidin-3-yl)-2-methylpropanamide] | > 4.60

Further lines, results first:

Row | pIC50 | SMILES
16 | > 4.60 | CC/C=C\C/C=C\C/C=C\C/C=C\C/C=C\CCCC(=O)N1CCC(NC(=O)C2=CC(=O)C(C)(c3ccccc3)O2)CC1 (centres unmarked) [VII-1, N-(1-((5Z,8Z,11Z,14Z,17Z)-icosa-5,8,11,14,17-pentaenoyl)piperidin-4-yl)-5-methyl-4-oxo-5-phenyl-4,5-dihydrofuran-2-carboxamide]
17 | > 4.60 | CC/C=C\C/C=C\C/C=C\C/C=C\C/C=C\CCCC(=O)N1CCC(CNC(=O)C2=CC(=O)C(C)(c3ccccc3)O2)CC1 (centres unmarked) [VII-2, N-((1-((5Z,8Z,11Z,14Z,17Z)-icosa-5,8,11,14,17-pentaenoyl)piperidin-4-yl)methyl)-5-methyl-4-oxo-5-phenyl-4,5-dihydrofuran-2-carboxamide]
18 | > 4.60 | CC/C=C\C/C=C\C/C=C\C/C=C\C/C=C\CCCC(=O)N1CC[C@@H](NC(=O)C2=CC(=O)C(C)(c3ccccc3)O2)C1 (stereo partly drawn) [VII-3, N—((R)-1-((5Z,8Z,11Z,14Z,17Z)-icosa-5,8,11,14,17-pentaenoyl)pyrrolidin-3-yl)-5-methyl-4-oxo-5-phenyl-4,5-dihydrofuran-2-carboxamide]
19 | > 4.60 | CC/C=C\C/C=C\C/C=C\C/C=C\C/C=C\CCCC(=O)N1CC[C@H](NC(=O)C2=CC(=O)C(C)(c3ccccc3)O2)C1 (stereo partly drawn) [VII-4, N—((S)-1-((5Z,8Z,11Z,14Z,17Z)-icosa-5,8,11,14,17-pentaenoyl)pyrrolidin-3-yl)-5-methyl-4-oxo-5-phenyl-4,5-dihydrofuran-2-carboxamide]
20 | > 4.60 | CC/C=C\C/C=C\C/C=C\C/C=C\C/C=C\CCCC(=O)N1CC[C@H](CNC(=O)C2=CC(=O)C(C)(c3ccccc3)O2)C1 (stereo partly drawn) [VII-5, N—(((R)-1-((5Z,8Z,11Z,14Z,17Z)-icosa-5,8,11,14,17-pentaenoyl)pyrrolidin-3-yl)methyl)-5-methyl-4-oxo-5-phenyl-4,5-dihydrofuran-2-carboxamide]
21 | > 4.60 | CC/C=C\C/C=C\C/C=C\C/C=C\C/C=C\CCCC(=O)N1CC[C@@H](CNC(=O)C2=CC(=O)C(C)(c3ccccc3)O2)C1 (stereo partly drawn) [VII-6, N—(((S)-1-((5Z,8Z,11Z,14Z,17Z)-icosa-5,8,11,14,17-pentaenoyl)pyrrolidin-3-yl)methyl)-5-methyl-4-oxo-5-phenyl-4,5-dihydrofuran-2-carboxamide]
22 | > 4.60 | CC/C=C\C/C=C\C/C=C\C/C=C\C/C=C\CCCC(=O)N1CCC(N(C)C(=O)C2=CC(=O)C(C)(c3ccccc3)O2)CC1 (centres unmarked) [VII-7, N-(1-((5Z,8Z,11Z,14Z,17Z)-icosa-5,8,11,14,17-pentaenoyl)piperidin-4-yl)-N,5-dimethyl-4-oxo-5-phenyl-4,5-dihydrofuran-2-carboxamide]
23 | > 4.60 | CC/C=C\C/C=C\C/C=C\C/C=C\C/C=C\CCCC(=O)N1CCC(CN(C)C(=O)C2=CC(=O)C(C)(c3ccccc3)O2)CC1 (centres unmarked) [VII-8, N-((1-((5Z,8Z,11Z,14Z,17Z)-icosa-5,8,11,14,17-pentaenoyl)piperidin-4-yl)methyl)-N,5-dimethyl-4-oxo-5-phenyl-4,5-dihydrofuran-2-carboxamide]
24 | > 4.60 | CC/C=C\C/C=C\C/C=C\C/C=C\C/C=C\CCCC(=O)N1CCC(CNC(=O)c2cnc(C)c[n+]2[O-])CC1 [VII-10, 2-(((1-((5Z,8Z,11Z,14Z,17Z)-icosa-5,8,11,14,17-pentaenoyl)piperidin-4-yl)methyl)carbamoyl)-5-methylpyrazine 1-oxide]
25 | > 4.60 | CC/C=C\C/C=C\C/C=C\C/C=C\C/C=C\CCCC(=O)N1CCC[C@@H]1CNC(=O)c1cnc(C)c[n+]1[O-] [VII-13, 2-((((R)-1-((5Z,8Z,11Z,14Z,17Z)-icosa-5,8,11,14,17-pentaenoyl)pyrrolidin-2-yl)methyl)carbamoyl)-5-methylpyrazine 1-oxide]
26 | > 4.60 | CC/C=C\C/C=C\C/C=C\C/C=C\C/C=C\CCCC(=O)N1CCC(NC(=O)c2c[n+]([O-])cc(C)n2)CC1 [VII-15, 3-((1-((5Z,8Z,11Z,14Z,17Z)-icosa-5,8,11,14,17-pentaenoyl)piperidin-4-yl)carbamoyl)-5-methylpyrazine 1-oxide]
